From patent publication US20230295200A1 (REGENTS OF THE UNIVERSITY OF MICHIGAN, priority 2022, published 2023)

Key:
STAT6 protein = target: T1, STAT6 protein (Homo sapiens, UniProt P42226); assay: Fluorescence polarization (FP) binding assay, STAT6; conditions: FP competition, 5 nM fluorescein-labeled tracer, 200 nM protein, PBS pH7.4; read-out: Binding STAT6
T1 sequence (P42226 1-847): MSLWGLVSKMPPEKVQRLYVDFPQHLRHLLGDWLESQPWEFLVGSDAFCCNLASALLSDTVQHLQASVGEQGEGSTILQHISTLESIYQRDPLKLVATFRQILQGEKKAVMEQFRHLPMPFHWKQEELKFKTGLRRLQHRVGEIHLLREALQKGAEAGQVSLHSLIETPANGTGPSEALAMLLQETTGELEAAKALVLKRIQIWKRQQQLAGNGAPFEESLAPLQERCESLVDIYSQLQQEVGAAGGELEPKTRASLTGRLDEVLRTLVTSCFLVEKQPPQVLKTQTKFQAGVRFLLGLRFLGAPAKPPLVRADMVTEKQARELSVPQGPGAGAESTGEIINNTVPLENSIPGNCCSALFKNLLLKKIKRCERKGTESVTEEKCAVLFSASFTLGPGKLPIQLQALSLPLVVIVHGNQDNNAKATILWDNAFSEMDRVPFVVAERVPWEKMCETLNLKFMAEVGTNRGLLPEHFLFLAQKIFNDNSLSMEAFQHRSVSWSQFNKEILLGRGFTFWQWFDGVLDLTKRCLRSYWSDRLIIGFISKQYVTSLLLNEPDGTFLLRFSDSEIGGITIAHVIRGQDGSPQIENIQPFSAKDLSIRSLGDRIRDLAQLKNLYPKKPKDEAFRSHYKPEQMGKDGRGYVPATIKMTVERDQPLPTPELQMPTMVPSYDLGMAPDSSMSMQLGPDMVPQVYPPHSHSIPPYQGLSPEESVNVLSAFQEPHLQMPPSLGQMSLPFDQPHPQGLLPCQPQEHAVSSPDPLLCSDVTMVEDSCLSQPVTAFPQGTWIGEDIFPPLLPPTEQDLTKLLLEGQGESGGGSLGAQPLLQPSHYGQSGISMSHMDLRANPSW
How it was run: (§1)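 Competitive FP read-out with 5 nM fluorescein-labeled tracer and 200 nM STAT5 or STAT6 protein in PBS pH 7.4 containing 0.01% BGG, 0.01% Tween-20 and 2 mM DTT. Plates were shaken 15 min, then equilibrated 1 h at room temperature; inhibition constants came from nonlinear curve fitting.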

STAT5A = target: T2, STAT5A (Homo sapiens, UniProt P42229); assay: Fluorescence polarization (FP) binding assay, STAT5A; conditions: FP competition, 5 nM fluorescein-labeled tracer, 200 nM protein, PBS pH7.4
T2 sequence (P42229 1-794): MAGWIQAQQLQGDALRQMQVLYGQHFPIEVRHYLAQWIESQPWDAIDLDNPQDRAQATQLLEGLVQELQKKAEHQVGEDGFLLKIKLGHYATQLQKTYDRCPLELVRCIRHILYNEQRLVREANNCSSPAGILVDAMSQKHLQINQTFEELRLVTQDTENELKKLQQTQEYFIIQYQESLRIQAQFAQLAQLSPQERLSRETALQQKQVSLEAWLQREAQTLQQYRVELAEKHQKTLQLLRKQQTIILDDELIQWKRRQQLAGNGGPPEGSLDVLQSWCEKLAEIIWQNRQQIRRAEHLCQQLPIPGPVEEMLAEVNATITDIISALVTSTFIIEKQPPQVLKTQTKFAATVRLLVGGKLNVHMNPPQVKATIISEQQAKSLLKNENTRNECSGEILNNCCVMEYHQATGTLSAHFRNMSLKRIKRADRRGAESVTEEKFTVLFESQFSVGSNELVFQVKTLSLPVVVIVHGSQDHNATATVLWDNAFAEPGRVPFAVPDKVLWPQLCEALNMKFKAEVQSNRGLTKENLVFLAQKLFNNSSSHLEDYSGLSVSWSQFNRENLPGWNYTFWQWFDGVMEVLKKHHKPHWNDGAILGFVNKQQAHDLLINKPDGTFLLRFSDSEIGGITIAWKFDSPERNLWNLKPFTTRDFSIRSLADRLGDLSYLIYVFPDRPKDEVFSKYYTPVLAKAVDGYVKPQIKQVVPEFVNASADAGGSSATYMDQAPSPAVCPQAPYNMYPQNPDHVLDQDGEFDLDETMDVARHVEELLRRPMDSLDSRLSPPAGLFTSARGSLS
How it was run: as §1

Compound | Ki (STAT6 protein) | Ki (STAT5A)
CC(C)(C)[C@H](NC(=O)c1cc2cc(C(F)(F)P(=O)(O)O)ccc2s1)C(=O)N1CCC[C@H]1C(=O)N1CCOC(c2cccc3ccccc23)C1 (stereo partly drawn) [Compound 129, ((2-(((2S)-3,3-dimethyl-1-((2S)-2-(2-(naphthalen-1-yl)morpholine-4-carbonyl)pyrrolidin-1-yl)-1-oxobutan-2-yl)carbamoyl)benzo[b]thiophen-5-yl)difluoromethyl)phosphonic acid] | 0.1 to 1 µM | 1 to 10 µM
CC(C)(C)[C@H](NC(=O)c1cc2cc(C(F)(F)P(=O)(O)O)ccc2s1)C(=O)N1CCC[C@H]1C(=O)N1CCOC(c2cccnc2)C1 (stereo partly drawn) [Compound 130, ((2-(((2S)-3,3-dimethyl-1-oxo-1-((2S)-2-(2-(pyridin-3-yl)morpholine-4-carbonyl)pyrrolidin-1-yl)butan-2-yl)carbamoyl)benzo[b]thiophen-5-yl)difluoromethyl)phosphonic acid] | 0.1 to 1 µM | > 10 µM
CC(C)(C)[C@H](NC(=O)c1cc2cc(C(F)(F)P(=O)(O)O)ccc2s1)C(=O)N1CCC[C@H]1C(=O)N1CCOC(c2ccncc2)C1 (stereo partly drawn) [Compound 131, ((2-(((2S)-3,3-dimethyl-1-oxo-1-((2S)-2-(2-(pyridin-4-yl)morpholine-4-carbonyl)pyrrolidin-1-yl)butan-2-yl)carbamoyl)benzo[b]thiophen-5-yl)difluoromethyl)phosphonic acid] | 1 to 10 µM | > 10 µM
CC(C)(C)[C@H](NC(=O)c1cc2cc(C(F)(F)P(=O)(O)O)ccc2s1)C(=O)N1CCC[C@H]1C(=O)N1CCOC(Cc2ccccc2)C1 (stereo partly drawn) [Compound 133, ((2-(((2S)-1-((2S)-2-(2-benzylmorpholine-4-carbonyl)pyrrolidin-1-yl)-3,3-dimethyl-1-oxobutan-2-yl)carbamoyl)benzo[b]thiophen-5-yl)difluoromethyl)phosphonic acid] | 1 to 10 µM | > 10 µM

Other lines, results leading:

Ki (STAT6 protein) | Ki (STAT5A) | Compound
0.1 to 1 µM | 1 to 10 µM | CC1COC(c2ccccc2)CN1C(=O)[C@@H]1CCCN1C(=O)[C@@H](NC(=O)c1cc2cc(C(F)(F)P(=O)(O)O)ccc2s1)C(C)(C)C (stereo partly drawn) [Compound 126, ((2-(((2S)-3,3-dimethyl-1-((2S)-2-(5-methyl-2-phenylmorpholine-4-carbonyl)pyrrolidin-1-yl)-1-oxobutan-2-yl)carbamoyl)benzo[b]thiophen-5-yl)difluoromethyl)phosphonic acid]
0.1 to 1 µM | 1 to 10 µM | CC(C)(C)[C@H](NC(=O)c1cc2cc(C(F)(F)P(=O)(O)O)ccc2s1)C(=O)N1CCC[C@H]1C(=O)N1CCOC(c2cccs2)C1 (stereo partly drawn) [Compound 127, ((2-(((2S)-3,3-dimethyl-1-oxo-1-((2S)-2-(2-(thiophen-2-yl)morpholine-4-carbonyl)pyrrolidin-1-yl)butan-2-yl)carbamoyl)benzo[b]thiophen-5-yl)difluoromethyl)phosphonic acid]
1 to 10 µM | > 10 µM | CC(C)(C)[C@H](NC(=O)c1cc2cc(C(F)(F)P(=O)(O)O)ccc2s1)C(=O)N1CCC[C@H]1C(=O)N1CCOC(c2nccs2)C1 (stereo partly drawn) [Compound 128, ((2-(((2S)-3,3-dimethyl-1-oxo-1-((2S)-2-(2-(thiazol-2-yl)morpholine-4-carbonyl)pyrrolidin-1-yl)butan-2-yl)carbamoyl)benzo[b]thiophen-5-yl)difluoromethyl)phosphonic acid]
0.1 to 1 µM | 0.1 to 1 µM | CC(C)(C)[C@H](NC(=O)c1cc2cc(C(F)(F)P(=O)(O)O)ccc2s1)C(=O)N1CCC[C@H]1C(=O)N1CCSC(c2ccccc2)C1 (stereo partly drawn) [Compound 132, ((2-(((2S)-3,3-dimethyl-1-oxo-1-((2S)-2-(2-phenylthiomorpholine-4-carbonyl)pyrrolidin-1-yl)butan-2-yl)carbamoyl)benzo[b]thiophen-5-yl)difluoromethyl)phosphonic acid]
